What was measured:
[1] = tested on: carrageenan-induced paw edema; test: Carrageenan-induced paw edema model; type: in vivo; details: mice, dose 10 mg/kg
Procedure: The anti-inflammatory activity of MAK01 was evaluated through a carrageenan-induced paw edema model. The mice, with weights ranging from 25 to 30 g, were separated into five distinct groups, these being Vehicle Group 1, Aspirin Group 2, and different concentrations of MAK01 in Groups 3–5. Each of these groups comprised five mice. The negative control group in the experiment received a specific solution comprising normal saline, DMSO, and Tween-80. The mixture contained 94% normal saline, 5% DMSO, and 1% Tween-80, delivered at a concentration of 10 mL per kg. In contrast, the positive control group in the assay received the comparator aspirin at a precise dose of 10 mg/kg. The test samples were administered at doses of 10 mg/kg, 20 mg/kg, and 30 mg/kg, given intra-peritoneally. After 30 min, a 2% carrageenan suspension (0.2 mL) was administered to each mouse in every group via a subcutaneous injection in the hind paw. In the experiment, a plethysmometer was used to precisely measure inflammation and edema. These measurements were taken at multiple time points both prior to and following the carrageenan administration. Specifically, the readings were recorded at 1, 2, 3, 4, and 5 h intervals to monitor the progress of the inflammatory response and paw swelling. These obtained results were then compared against the outcomes from the negative control group. The gathered data from the experiment, relating to the impact of the newly synthesized compounds on paw edema, were carefully processed to derive the percentage of edema inhibition. Using the below equation, the percent inhibition was calculated. % Inhibition=Ce−Te/Ce×100
In the formula, ‘Ce’ refers to the control group paw edema volume, while ‘Te’ denotes test groups’ paw edema volume.

mice = test: Hot plate antinociceptive test; type: in vivo; details: dose 5 mg/kg
5-LOX = target: T1, 5-LOX (Homo sapiens, UniProt P09917); test: 5-LOX inhibitory assay; type: biochemical; details: read-out: 5-LOX percent inhibition
T1 construct: purchased Cayman Chemical Batch No.: A3457
T1 sequence (P09917 1-674): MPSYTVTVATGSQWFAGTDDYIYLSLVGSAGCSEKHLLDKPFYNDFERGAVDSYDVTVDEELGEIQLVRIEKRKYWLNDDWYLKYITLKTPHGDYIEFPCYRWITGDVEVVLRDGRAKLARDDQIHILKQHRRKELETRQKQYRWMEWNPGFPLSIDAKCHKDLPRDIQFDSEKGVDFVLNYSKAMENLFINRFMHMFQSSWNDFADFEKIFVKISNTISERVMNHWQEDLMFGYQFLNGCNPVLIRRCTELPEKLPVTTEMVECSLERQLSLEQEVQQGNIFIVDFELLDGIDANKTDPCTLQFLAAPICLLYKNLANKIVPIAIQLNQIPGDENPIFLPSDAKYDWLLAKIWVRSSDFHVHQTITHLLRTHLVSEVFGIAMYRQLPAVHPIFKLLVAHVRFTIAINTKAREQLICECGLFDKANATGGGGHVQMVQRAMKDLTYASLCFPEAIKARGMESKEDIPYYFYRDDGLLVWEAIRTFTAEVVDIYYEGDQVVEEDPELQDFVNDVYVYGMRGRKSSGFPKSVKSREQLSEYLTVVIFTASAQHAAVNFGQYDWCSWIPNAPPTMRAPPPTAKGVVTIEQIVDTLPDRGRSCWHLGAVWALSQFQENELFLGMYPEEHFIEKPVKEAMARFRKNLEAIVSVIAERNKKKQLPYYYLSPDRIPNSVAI
Procedure: The activity of MAK01 against the 5-LOX enzyme was investigated using a human recombinant form of 5-LOX [47]. To begin the 5-LOX activity assay, a 10,000 U/mL solution of 5-LOX was prepared in a phosphate buffer with a pH of 6.3. A range of concentrations of the test compounds in the same buffer were prepared for assay. As a substrate for 5-LOX, linoleic acid (80 mM) was diluted with ethyl alcohol and used in the assay. The experiment involved mixing the same amount of both the enzyme solution and the test sample, such as mixing 0.25 mL 5-LOX with 0.25 mL of the compound, both dissolved in buffer. The mixing was followed by incubation at 25 °C for 5 to 10 min. Subsequently, 0.10 mL of the linoleic acid solution was added and allowed to incubate for another 5 min. The absorbance was measured using a UV–visible spectrophotometer at a wavelength of 234 nm, and the percent inhibition was calculated based on the absorbance readings. The same procedure was repeated for different concentrations of the test samples. Zileuton, as a reference drug, was used in comparisons. Using the following formula, the percent inhibition for each sample was calculated: % Inhibition=Abs. of Control−Abs. of Sample/Abs. of Control×100

CC(=O)Oc1ccccc1C(=O)O [Aspirin, aspirin, reference compound]
Paw Edema Inhibition in Percent ([1]; 1 h): 47.46 ± 0.80%
Paw Edema Inhibition in Percent ([1]; 2 h): 54.42 ± 1.10%
Paw Edema Inhibition in Percent ([1]; 3 h): 55.23 ± 0.73%
Paw Edema Inhibition in Percent ([1]; 4 h): 56.22 ± 1.34%
Paw Edema Inhibition in Percent ([1]; 5 h): 57.57 ± 1.23%

CN1CC[C@]23c4c5ccc(O)c4O[C@H]2[C@@H](O)C=C[C@H]3[C@H]1C5 [Morphine, morphine, reference compound]
Latency Time (Seconds) on Hot Plate (mice; 30 min): 13.83 ± 0.63 s
Latency Time (Seconds) on Hot Plate (mice; 60 min): 13.52 ± 0.23 s
Latency Time (Seconds) on Hot Plate (mice; 90 min): 13.29 ± 0.78 s
Latency Time (Seconds) on Hot Plate (mice; 120 min): 12.92 ± 0.56 s
Latency Time (Seconds) on Hot Plate (mice; 150 min): 12.59 ± 0.41 s

CC(c1cc2ccccc2s1)N(O)C(N)=O (stereo not drawn) [Zileuton, zileuton, reference compound]
inhibition at 62.5 µg/mL (5-LOX): 74%
inhibition at 125 µg/mL (5-LOX): 78%
inhibition at 250 µg/mL (5-LOX): 81%
inhibition at 500 µg/mL (5-LOX): 85%
inhibition at 1000 µg/mL (5-LOX): 94%

— article PMC11597207, “Synthesis and Anti-Inflammatory and Analgesic Potentials of Ethyl 2-(2,5-Dioxo-1-Phenylpyrrolidin-3-yl)-2-Methylpropanoate” (Pharmaceuticals, 2024)
